Here are results for eleven molecules from patent publication US20080194701A1, “Bifunctional Enzyme with Y-Glutamylcysteine Synthetase and Glutathione Synthetase Activity and Uses Thereof” (priority 2004, published 2008).

In assay [1] the target is E. coli γ-GCS (Escherichia coli, UniProt P0A6W9). The settings on record: cited from earlier work; for Km: substrate Km; for Vmax: unit = 1 μmol product per hour.
Assay [2] deals with T1, Human γ-GCSc (Homo sapiens, UniProt P48506).
T1 sequence (P48506 1-637): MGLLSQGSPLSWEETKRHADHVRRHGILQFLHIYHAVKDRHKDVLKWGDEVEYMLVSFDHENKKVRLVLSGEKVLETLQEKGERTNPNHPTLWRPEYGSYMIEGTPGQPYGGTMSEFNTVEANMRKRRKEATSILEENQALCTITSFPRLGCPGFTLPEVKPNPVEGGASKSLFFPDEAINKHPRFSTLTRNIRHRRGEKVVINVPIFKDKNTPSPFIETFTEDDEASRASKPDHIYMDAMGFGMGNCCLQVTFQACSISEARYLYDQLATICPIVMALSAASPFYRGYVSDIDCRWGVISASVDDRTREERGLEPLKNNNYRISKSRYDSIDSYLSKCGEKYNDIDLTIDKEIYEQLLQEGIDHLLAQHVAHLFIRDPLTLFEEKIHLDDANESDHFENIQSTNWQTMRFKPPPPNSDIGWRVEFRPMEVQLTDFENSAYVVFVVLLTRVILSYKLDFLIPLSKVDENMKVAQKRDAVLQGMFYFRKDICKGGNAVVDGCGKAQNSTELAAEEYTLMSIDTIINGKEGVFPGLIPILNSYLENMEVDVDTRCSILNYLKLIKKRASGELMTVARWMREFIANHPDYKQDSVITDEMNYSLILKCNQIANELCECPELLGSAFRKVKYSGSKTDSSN
The note with it: catalytic subunit only, cited from earlier work; for Km: substrate Km.

Assay [3] has as its target T2, S. agalactiae γ-GCS-GS (Streptococcus agalactiae serotype V, UniProt Q8DXM9).
T2 sequence (Q8DXM9 1-750): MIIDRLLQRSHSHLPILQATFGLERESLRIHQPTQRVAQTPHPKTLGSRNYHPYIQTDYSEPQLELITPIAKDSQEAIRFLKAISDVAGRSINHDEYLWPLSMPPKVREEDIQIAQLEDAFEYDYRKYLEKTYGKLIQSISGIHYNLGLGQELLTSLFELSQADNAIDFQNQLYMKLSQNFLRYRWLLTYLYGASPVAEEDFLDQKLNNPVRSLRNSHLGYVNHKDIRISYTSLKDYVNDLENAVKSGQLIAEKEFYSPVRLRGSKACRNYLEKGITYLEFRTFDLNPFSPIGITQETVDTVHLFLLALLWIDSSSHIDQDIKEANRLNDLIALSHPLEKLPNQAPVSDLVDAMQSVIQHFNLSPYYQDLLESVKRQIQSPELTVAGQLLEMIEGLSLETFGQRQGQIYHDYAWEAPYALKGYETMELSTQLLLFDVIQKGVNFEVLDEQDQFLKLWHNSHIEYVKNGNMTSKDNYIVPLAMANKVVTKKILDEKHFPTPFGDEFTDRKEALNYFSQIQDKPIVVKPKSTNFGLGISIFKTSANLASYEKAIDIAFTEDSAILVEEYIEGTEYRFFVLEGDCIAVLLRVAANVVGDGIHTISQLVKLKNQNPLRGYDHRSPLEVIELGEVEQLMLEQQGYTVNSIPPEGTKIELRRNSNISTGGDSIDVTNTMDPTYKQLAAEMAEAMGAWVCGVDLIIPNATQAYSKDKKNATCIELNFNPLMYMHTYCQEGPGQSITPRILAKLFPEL
The assay can be described thus: γ-GCS activity assay based on ADP formation, S. agalactiae γ-GCS-GS. The format is biochemical. Set-up: corresponded to full-length S. agalactiae γ-GCS-GS with an N-terminal His8-tag; made in house; host or cells: E. coli SG13009 with pQE30-gshAB plus pREP4 or pRARE. The note with it: for Vmax: unit = 1 μmol product per hour. The procedure: In Table 1, a unit was defined as the amount of enzyme activity required to catalyze the formation of 1 μmol of product per hour. Specific activity was shown as units per mg protein. Activity was determined at 37° C. based on ADP formation in reaction mixtures containing L-glutamate and L-cysteine and using pyruvate kinase and lactate dehydrogenase to couple ADP formation to NADH oxidation, which was monitored at 340 nm.
Exp. Purif. 13, 268-276 (1998).
At set time points ranging from one to 30 minutes, 5 μl aliquots were removed and assayed for residual enzyme activity using the standard γ-GCS assay based on ADP formation.

Assay [4] has as its target T3, Human γ-GCS (Homo sapiens, UniProt P48506).
T3 sequence (P48506 1-637): T1 sequence (P48506 1-637)
T3 sequence (P48507 1-274 partner): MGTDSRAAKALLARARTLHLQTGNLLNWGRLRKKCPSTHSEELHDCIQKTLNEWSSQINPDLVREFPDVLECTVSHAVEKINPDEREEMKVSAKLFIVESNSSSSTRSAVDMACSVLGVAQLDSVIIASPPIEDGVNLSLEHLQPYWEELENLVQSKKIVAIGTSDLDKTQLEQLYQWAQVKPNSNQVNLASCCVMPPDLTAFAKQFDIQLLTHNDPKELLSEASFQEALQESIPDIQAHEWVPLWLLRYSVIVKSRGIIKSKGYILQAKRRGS
The note with it: cited from earlier work; for Km: substrate Km; for Vmax: unit = 1 μmol product per hour; for Ki: read-out: Ki.

The target of assay [5] is T4, Human GS (Homo sapiens, UniProt P48637).
T4 sequence (P48637 1-474): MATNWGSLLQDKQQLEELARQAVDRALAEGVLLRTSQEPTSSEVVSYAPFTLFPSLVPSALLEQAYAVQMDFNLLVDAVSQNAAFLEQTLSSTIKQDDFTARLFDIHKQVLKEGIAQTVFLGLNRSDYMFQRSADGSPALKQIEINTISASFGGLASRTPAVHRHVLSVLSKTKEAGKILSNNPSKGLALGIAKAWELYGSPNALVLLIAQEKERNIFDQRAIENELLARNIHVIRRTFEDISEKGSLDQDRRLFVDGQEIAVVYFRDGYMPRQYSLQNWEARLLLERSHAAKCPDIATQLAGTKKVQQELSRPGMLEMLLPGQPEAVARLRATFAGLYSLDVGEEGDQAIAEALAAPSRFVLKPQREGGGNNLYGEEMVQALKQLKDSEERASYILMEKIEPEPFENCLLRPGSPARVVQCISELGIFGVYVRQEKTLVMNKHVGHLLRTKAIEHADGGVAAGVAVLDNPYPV
The settings on record: cited from earlier work.

For assay [6], the target named is T5, Rat GS (Rattus norvegicus, UniProt P46413).
T5 sequence (P46413 1-474): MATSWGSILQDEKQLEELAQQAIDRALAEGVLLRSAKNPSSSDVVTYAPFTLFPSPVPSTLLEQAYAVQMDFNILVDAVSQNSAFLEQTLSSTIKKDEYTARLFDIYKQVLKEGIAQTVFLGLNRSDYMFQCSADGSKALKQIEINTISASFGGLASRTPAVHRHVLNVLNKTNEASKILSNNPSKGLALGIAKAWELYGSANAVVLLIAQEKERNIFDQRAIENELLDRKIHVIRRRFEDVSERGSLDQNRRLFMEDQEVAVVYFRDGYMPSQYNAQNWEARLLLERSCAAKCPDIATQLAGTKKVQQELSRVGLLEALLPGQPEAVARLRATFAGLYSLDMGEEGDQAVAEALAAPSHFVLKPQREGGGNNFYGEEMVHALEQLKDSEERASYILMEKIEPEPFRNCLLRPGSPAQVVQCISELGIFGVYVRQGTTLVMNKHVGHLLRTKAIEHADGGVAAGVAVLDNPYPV
The settings on record: cited from earlier work.

The target in assay [7] is E. coli GS (Escherichia coli, UniProt P04425). The note with it: cited from earlier work; for Km: substrate Km.
Chain of E. coli GS (P04425 whole entry): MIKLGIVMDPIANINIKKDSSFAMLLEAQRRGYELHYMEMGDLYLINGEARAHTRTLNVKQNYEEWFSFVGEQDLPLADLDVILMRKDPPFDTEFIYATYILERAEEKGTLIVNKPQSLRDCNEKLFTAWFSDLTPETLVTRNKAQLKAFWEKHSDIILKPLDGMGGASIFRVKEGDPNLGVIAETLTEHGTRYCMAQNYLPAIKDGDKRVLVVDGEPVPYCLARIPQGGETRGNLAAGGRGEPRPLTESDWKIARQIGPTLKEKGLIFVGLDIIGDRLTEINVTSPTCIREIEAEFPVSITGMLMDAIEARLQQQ
Assay [8] has as its target S. mutans γ-GCS-GS (Streptococcus mutans serotype c, UniProt Q8DW15). The assay can be described thus: γ-GCS activity of S. mutans γ-GCS-GS. The text has this:
3′ and 5′ […] 3′ and introduced unique Bgl II and Hind III sites (underlined), respectively.

The target of assay [9] is E. faecalis γ-GCS-GS (Enterococcus faecalis, UniProt Q82ZG8). Put plainly: γ-GCS activity of E. faecalis γ-GCS-GS.
In assay [10] the target is T2, S. agalactiae γ-GCS-GS. Put plainly: GS activity assay based on ADP formation, S. agalactiae γ-GCS-GS. The settings on record: GSH concentrations of up to 100 mM. Here is the method:
Transformed cells were grown, induced, and harvested by centrifugation, and were then broken using a French pressure cell. […] The column was equilibrated with 50 mM Tris HCl buffer, pH 7.4, containing 5 mM L-glutamate, 5 mM MgCl2, and 5 mM β-mercaptoethanol, and the high-speed supernatant was loaded. After washing the column with equilibration buffer to remove proteins lacking a His-tag, the expressed His8-tagged protein was eluted using the same buffer supplemented with 200 mM imidazole. Amount of γ-GCS activity was determined as described in Example 2. […] It was observed that the purified enzyme catalyzed both the γ-GCS and the GS reactions. Since the GS-specific activity was higher than the specific activity for any known GS enzyme, it was apparent that the expressed 85 kDa S. agalactiae protein (rather than a trace impurity), accounted for the observed GS activity. Using the pREP4 auxiliary plasmid instead of the pRARE plasmid gave somewhat lower yields (325 mg total protein vs. 442 mg protein using pRARE) but the specific activities of the γ-GCS activity (870 units/mg) and GS activities (1143 units/mg) were similar.
Results for E. coli GS are from H. Gushima et al. J. Appl. Biochem. 5, 210-218 (1983). Results for rat GS are from J. L. Luo et al. Biochem. Biophys. Res. Commun. 275, 577-581 (2000). Results for human GS are from R. Njalsson et al. Biochem. Biophys. Res. Commun. 289, 80-84 (2001) and R. Njalsson et al. Biochem. J. 349, 275-279 (2000).

[11] abbreviates: MSO also pre-incubated with MgATP, absence of L-glutamate.

The term Km denotes the substrate concentration at which the rate is half of its maximum. The term Ki denotes the equilibrium dissociation constant of an inhibitor or competing ligand from its target.

Each structure is given as a SMILES string. Where two headings read alike, the source gives them in different places. Some results are limits rather than exact numbers.

Chain of E. coli γ-GCS (P0A6W9 whole entry): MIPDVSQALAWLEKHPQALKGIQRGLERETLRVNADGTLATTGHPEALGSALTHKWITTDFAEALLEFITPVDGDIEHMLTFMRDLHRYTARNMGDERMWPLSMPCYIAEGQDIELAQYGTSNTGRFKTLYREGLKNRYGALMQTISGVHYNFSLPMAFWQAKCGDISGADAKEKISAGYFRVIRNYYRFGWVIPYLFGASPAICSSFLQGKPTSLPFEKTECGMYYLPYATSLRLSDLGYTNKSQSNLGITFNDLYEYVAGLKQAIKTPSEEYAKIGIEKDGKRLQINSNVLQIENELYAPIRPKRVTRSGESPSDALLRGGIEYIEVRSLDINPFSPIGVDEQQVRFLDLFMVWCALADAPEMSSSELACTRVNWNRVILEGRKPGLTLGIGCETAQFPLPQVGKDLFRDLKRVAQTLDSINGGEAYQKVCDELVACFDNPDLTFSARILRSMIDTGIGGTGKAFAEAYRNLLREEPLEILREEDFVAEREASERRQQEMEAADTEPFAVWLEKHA
Chain of S. mutans γ-GCS-GS (Q8DW15 whole entry): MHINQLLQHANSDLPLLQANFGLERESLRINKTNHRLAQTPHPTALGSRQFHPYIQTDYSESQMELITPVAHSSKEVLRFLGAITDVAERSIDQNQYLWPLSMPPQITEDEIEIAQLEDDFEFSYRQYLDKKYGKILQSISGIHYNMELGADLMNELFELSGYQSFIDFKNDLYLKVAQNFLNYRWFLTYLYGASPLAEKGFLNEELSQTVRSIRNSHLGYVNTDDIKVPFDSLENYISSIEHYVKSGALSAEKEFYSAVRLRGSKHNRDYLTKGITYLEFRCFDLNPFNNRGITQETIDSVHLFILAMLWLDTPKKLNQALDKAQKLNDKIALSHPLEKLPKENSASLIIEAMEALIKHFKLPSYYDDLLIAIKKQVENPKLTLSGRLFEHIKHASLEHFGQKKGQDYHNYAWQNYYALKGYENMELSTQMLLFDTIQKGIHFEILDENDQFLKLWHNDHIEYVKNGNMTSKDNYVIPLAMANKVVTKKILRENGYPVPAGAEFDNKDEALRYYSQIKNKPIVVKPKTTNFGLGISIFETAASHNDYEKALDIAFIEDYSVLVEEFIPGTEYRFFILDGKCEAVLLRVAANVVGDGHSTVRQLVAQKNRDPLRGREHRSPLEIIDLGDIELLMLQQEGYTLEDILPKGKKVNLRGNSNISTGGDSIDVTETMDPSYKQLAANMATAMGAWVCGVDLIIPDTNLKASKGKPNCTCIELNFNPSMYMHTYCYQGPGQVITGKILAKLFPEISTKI

As for `CC[C@H](N)C(=O)O` [L-α-aminobutyrate], the Km in assay [1] was 3900 ± 400 µM; in assay [2], 1700 µM; in assay [3] (substrate Km, γ-GCS activity), 8300 ± 1000 µM; in [4] it was 1300 µM. Further, the Vmax is 2970 ± 120 units/mg in assay [1], approximately 1250 units/mg in [2], 1148 ± 73 units/mg in [3] (γ-GCS activity) and approximately 1500 units/mg in assay [4].
`NCCSSCCN` [Cystamine, reference compound]: the inhibition constant (Ki) entry is “no inhibition” in assay [1]; “no inhibition” in [3] (inhibition of γ-GCS activity, initial reversible binding); 2 mM in assay [4]. In addition, the “inhibition of γ-GCS activity” value in assay [3] is on record as “no reproducibly measurable inhibition”.
Turning to `CP(=O)(O)CCC(N)C(=O)O.N` (stereo not shown) [glufosinate (ammonium salt), glufosinate ammonium], in [3] (setting [11]), the “inhibition of the γ-GCS activity (in words)” value (“inhibition … (in words)” below) is given as “moderately good inhibitors”. Further, in [3] (inhibition of γ-GCS activity, initial reversible binding, read-out: Ki), the Ki turned out to be 29 mM.
`NCC(=O)O` [glycine]: the Vmax is given as 361 ± 84 units/mg in assay [5], 678 units/mg in assay [6] and 650 units/mg in [7]. The Km in [5] (substrate Km) is 1300 ± 300 µM; in [6] (substrate Km) it was 913 µM; in assay [7], 2000 µM.
On to `CS(=N)(=O)CC[C@H](N)C(=O)O` (mixture of isomers) [L-Methionine-S,R-sulfoximine], for which the inhibition constant Ki in assay [3] was more than 100 mM. The “inhibition … (in words)” value in assay [3] (setting [11]) was “no significant inhibition”.
Take `N[C@@H](CCC(=O)N[C@@H](CS)C(=O)NCC(=O)O)C(=O)O` [GSH, L-γ-glutamyl-L-cysteinylglycine, reference compound]: the Ki in assay [8] is 67 ± 0.8 mM; in [1] (read-out: Ki), 2.7 mM; in assay [9], 25.1 ± 0.8 mM; in assay [3] it was “no inhibition”; in assay [4] it was 5.8 mM. Further, the “inhibition of GS activity” value in assay [10] is “does not significantly inhibit”.
As to `N[C@@H](CS)C(=O)O` [L-cysteine], the Vmax in assay [1] is reported as 3590 ± 200 units/mg; in assay [2], approximately 1250 units/mg; in assay [4] it was approximately 1500 units/mg. Moreover, the Km in assay [2] is 130 ± 10 µM; in assay [4], 100 ± 20 µM.
Turning to `NC(CCP(=O)(O)O)C(=O)O` (racemic) [D,L-2-amino-4-phosphonobutyric acid], in assay [3], the Ki was found to be 13 mM. For the same molecule, in assay [3] (setting [11]), the “inhibition … (in words)” value was “moderately good inhibitors”.
Regarding `N[C@@H](CCC(=O)N[C@@H](CS)C(=O)O)C(=O)O` [L-γ-glutamyl-L-cysteine], in assay [7], the Vmax is 650 units/mg and the Km was 2600 µM.
Consider `NC(CCCP(=O)(O)O)C(=O)O` (racemic) [D,L-2-amino-5-phosphonovaleric acid], for which, in assay [3], the Ki is more than 100 mM and the “inhibition … (in words)” value is listed as “not effective”.
As to `N[C@@H](CCC(=O)O)C(=O)O` [L-glutamate], the Km in assay [8] (substrate Km, γ-GCS activity) was 17000 ± 1000 µM; in assay [1], 1900 ± 200 µM; in assay [9] (substrate Km, γ-GCS activity) it was 79000 ± 14000 µM; in [2], 3200 ± 100 µM; in assay [3], 23000 ± 2000 µM; in assay [4], 1900 ± 200 µM. Further, the Vmax in [1] was 3170 ± 125 units/mg; in assay [2] it was approximately 1250 units/mg; in assay [3] (γ-GCS activity) it was 1341 ± 145 units/mg; in assay [4], approximately 1500 units/mg.
